Numbered stars: 1 amine (or outer) side, 2 acyl side, 3 side chain; on linkers, the order of the positions; unused ones are H or OH. Square brackets hold non-standard residues; d marks the D form. Peptide text beside a SMILES is read from it. Gly(N(CH2)2(3-indolyl)) = O=C(O)CNCCc1c[nH]c2ccccc12; Nspe = C[C@H](NCC(=O)O)c1ccccc1; X1 = O=C(CN(CCCCO)[*:1])[*:2]; Nphe = O=C(O)CNCc1ccccc1; Nlys = NCCCCNCC(=O)O
Experiments:
[1] = Analytical reversed-phase HPLC elution (hydrophobicity); type: physicochemical; conditions: Table S1; analytical RP-HPLC, SunFire C18, water/ACN + 0.1% TFA, 5 to 100% B linear over 30 min, 1 mL/min, UV 220 nm; approximate comparison of hydrophobicity
Description: 7. HPLC chromatogram, retention time (tR), and LC-MS data
HPLC analysis of peptoids was conducted using a Waters HPLC system equipped with a Waters 2489 UV/Visible Detector, 1525 Binary HPLC Pump, 2707 Autosampler, 5CH column oven, and a C18 column (SunFire C18, 4.6 × 250 mm, 5 μm; Waters Corp., Milford, MA, USA). The mobile phases were deionized water (A, with + 0.1% TFA) and acetonitrile (ACN; B, with + 0.1% TFA). Before sample injection, the column was conditioned with 5% B for 10 min. Then, the mobile phase was maintained at 5% B for 2 min, followed by increasing B to 100% using a linear gradient over 30 min. At this point, 100% B was maintained for 5 additional min. The flow rate of the mobile phase was 1 mL/min. The sample was detected by measuring absorbance at 220 nm. […]

[2] = tested on: rat erythrocytes; experiment: Hemolysis assay; type: cell-based; conditions: for HC10 / HC50: pH 7.4
Description: The hemolysis assay was performed using rat erythrocytes in phosphate‐buffered saline (PBS), as reported by Mendes et al.^[ [45] ^] Animal studies were approved by the Laboratory Animal Resource Center of Gwangju Institute of Science and Technology. Blood was collected from a 13‐week‐old male Sprague‐Dawley rat in tubes containing 158 USP units of sodium heparin to prevent coagulation and centrifuged at 1000 rpm for 10 min at 4 °C. Plasma was removed carefully and erythrocyte pellets were washed three times with PBS (35 mM phosphate, pH 7.4, 150 mM NaCl). Next, 150 µL of a 10% erythrocyte suspension was mixed with 50 µL of serially diluted peptoids (0–100 µM) in a 96‐well black polypropylene plates (Greiner, Kremsmünster, Austria). Untreated erythrocytes and cells lysed by the addition of 1% Triton X‐100 were used as negative and positive controls, respectively, with the 1% Triton X‐100‐treated wells being accepted to represent 100% hemolysis. The reaction mixture was incubated at 37 °C for 60 min, and the plates were centrifuged at 1000 rpm for 15 min. Aliquots (150 µL) of the supernatant were transferred to fresh 96‐well plates, and the absorbance of each well was measured at 540 nm using a microplate reader. Hemolysis induced by peptoids was calculated as the percentage value of Triton X‐100 lysed cells. The percentage of hemolysis by the extracts was calculated according to the following formula: % hemolysis = [(Abs 540 nm in the peptoid solution – Abs 540 nm in PBS) / (Abs 540 nm in 1% Triton X‐100 – Abs 540 nm in PBS)] × 100. HC10 and HC50 were defined as the peptoid concentrations that caused 10% and 50% hemolysis in rat erythrocytes, respectively. H max indicates the percentage of hemolysis observed at the maximum peptoid concentration, 100 µM throughout this study.

Compound	HPLC elution [1] [% MeCN]	Hmax (100 µM) [2] [%]	HC10 [2] [µM]	HC50 [2] [µM]
NCCCCNCC(=O)N(CC(=O)N(CC(=O)N(CCCCN)CC(=O)N(CC(=O)N(CC(=O)N(CCCCN)CC(=O)N(CC(=O)N(CC(=O)N(CCCCN)CC(=O)N(CC(=O)N(CC(N)=O)Cc1ccccc1)Cc1ccccc1)Cc1ccccc1)Cc1ccccc1)Cc1ccccc1)Cc1ccccc1)Cc1ccccc1)Cc1ccccc1 [peptoid 2, reference compound] (H-[Nlys][Nphe][Nphe][Nlys][Nphe][Nphe][Nlys][Nphe][Nphe][Nlys][Nphe][Nphe]-NH2)	50.7	17.7±1.1	20.4	> 100.0
C[C@@H](c1ccccc1)N(CC(N)=O)C(=O)CN(C(=O)CN(CCCCN)C(=O)CN(C(=O)CN(C(=O)CN(CCCCN)C(=O)CN(C(=O)CN(C(=O)CN(CCCCN)C(=O)CN(C(=O)CN(C(=O)CN(CCCCN)C(=O)CNCCc1c[nH]c2ccccc12)[C@@H](C)c1ccccc1)[C@@H](C)c1ccccc1)[C@@H](C)c1ccccc1)[C@@H](C)c1ccccc1)[C@@H](C)c1ccccc1)[C@@H](C)c1ccccc1)[C@@H](C)c1ccccc1 [peptoid 3]	55.8	100.5±9.9	6.3	13.9
C[C@@H](c1ccccc1)N(CC(N)=O)C(=O)CN(CCCCN)C(=O)CN(C(=O)CN(CCCCN)C(=O)CN(CCCCN)C(=O)CN(C(=O)CN(C(=O)CN(CCCCN)C(=O)CN(C(=O)CN(C(=O)CNCCCCN)[C@@H](C)c1ccccc1)[C@@H](C)c1ccccc1)[C@@H](C)c1ccccc1)[C@@H](C)c1ccccc1)[C@@H](C)c1ccccc1 [peptoid 50]	46.1			
C[C@@H](c1ccccc1)N(CC(N)=O)C(=O)CN(CCCCN)C(=O)CN(C(=O)CN(C(=O)CN(CCCCN)C(=O)CN(C(=O)CN(CCCCN)C(=O)CN(CCCCN)C(=O)CN(C(=O)CN(C(=O)CNCCCCN)[C@@H](C)c1ccccc1)[C@@H](C)c1ccccc1)[C@@H](C)c1ccccc1)[C@@H](C)c1ccccc1)[C@@H](C)c1ccccc1 [peptoid 51]	45.3			
C[C@@H](c1ccccc1)N(CC(N)=O)C(=O)CN(CCCCN)C(=O)CN(C(=O)CN(C(=O)CN(CCCCN)C(=O)CN(C(=O)CN(C(=O)CN(CCCCN)C(=O)CN(C(=O)CN(CCCCN)C(=O)CNCCCCN)[C@@H](C)c1ccccc1)[C@@H](C)c1ccccc1)[C@@H](C)c1ccccc1)[C@@H](C)c1ccccc1)[C@@H](C)c1ccccc1 [peptoid 52]	46.9			
C[C@H](NCC(=O)N(CCCCN)CC(=O)N(CC(=O)N(CC(=O)N(CCCCN)CC(=O)N(CC(=O)N(CC(=O)N(CCCCN)CC(=O)N(CC(=O)N(CC(=O)N(CCCCN)CC(=O)N(CCCCN)CC(N)=O)[C@@H](C)c1ccccc1)[C@@H](C)c1ccccc1)[C@@H](C)c1ccccc1)[C@@H](C)c1ccccc1)[C@@H](C)c1ccccc1)[C@@H](C)c1ccccc1)c1ccccc1 [peptoid 53] (H-[Nspe][Nlys][Nspe][Nspe][Nlys][Nspe][Nspe][Nlys][Nspe][Nspe][Nlys][Nlys]-NH2)	48.5			
C[C@H](NCC(=O)N(CCCCN)CC(=O)N(CC(=O)N(CC(=O)N(CCCCN)CC(=O)N(CC(=O)N(CC(=O)N(CCCCN)CC(=O)N(CCCCN)CC(=O)N(CC(=O)N(CCCCN)CC(=O)N(CC(N)=O)[C@@H](C)c1ccccc1)[C@@H](C)c1ccccc1)[C@@H](C)c1ccccc1)[C@@H](C)c1ccccc1)[C@@H](C)c1ccccc1)[C@@H](C)c1ccccc1)c1ccccc1 [peptoid 54] (H-[Nspe][Nlys][Nspe][Nspe][Nlys][Nspe][Nspe][Nlys][Nlys][Nspe][Nlys][Nspe]-NH2)	48.1			
C[C@H](NCC(=O)N(CCCCN)CC(=O)N(CC(=O)N(CC(=O)N(CCCCN)CC(=O)N(CCCCN)CC(=O)N(CC(=O)N(CCCCN)CC(=O)N(CC(=O)N(CC(=O)N(CCCCN)CC(=O)N(CC(N)=O)[C@@H](C)c1ccccc1)[C@@H](C)c1ccccc1)[C@@H](C)c1ccccc1)[C@@H](C)c1ccccc1)[C@@H](C)c1ccccc1)[C@@H](C)c1ccccc1)c1ccccc1 [peptoid 55] (H-[Nspe][Nlys][Nspe][Nspe][Nlys][Nlys][Nspe][Nlys][Nspe][Nspe][Nlys][Nspe]-NH2)	47.2			
C[C@H](NCC(=O)N(CCCCN)CC(=O)N(CCCCN)CC(=O)N(CC(=O)N(CCCCN)CC(=O)N(CC(=O)N(CC(=O)N(CCCCN)CC(=O)N(CC(=O)N(CC(=O)N(CCCCN)CC(=O)N(CC(N)=O)[C@@H](C)c1ccccc1)[C@@H](C)c1ccccc1)[C@@H](C)c1ccccc1)[C@@H](C)c1ccccc1)[C@@H](C)c1ccccc1)[C@@H](C)c1ccccc1)c1ccccc1 [peptoid 56] (H-[Nspe][Nlys][Nlys][Nspe][Nlys][Nspe][Nspe][Nlys][Nspe][Nspe][Nlys][Nspe]-NH2)	48.0			
C[C@@H](c1ccccc1)N(CC(=O)N(CCCCN)CC(=O)N(CC(=O)N(CC(=O)N(CCCCN)CC(=O)N(CC(=O)N(CC(=O)N(CCCCN)CC(=O)N(CCCCN)CC(N)=O)[C@@H](C)c1ccccc1)[C@@H](C)c1ccccc1)[C@@H](C)c1ccccc1)[C@@H](C)c1ccccc1)C(=O)CN(C(=O)CN(CCCCN)C(=O)CNCCc1c[nH]c2ccccc12)[C@@H](C)c1ccccc1 [peptoid 57] (H-[Gly(N(CH2)2(3-indolyl))][Nlys][Nspe][Nspe][Nlys][Nspe][Nspe][Nlys][Nspe][Nspe][Nlys][Nlys]-NH2)	49.1			
C[C@@H](c1ccccc1)N(CC(N)=O)C(=O)CN(CCCCN)C(=O)CN(C(=O)CN(CCCCN)C(=O)CN(CCCCN)C(=O)CN(C(=O)CN(C(=O)CN(CCCCN)C(=O)CN(C(=O)CN(C(=O)CN(CCCCN)C(=O)CNCCc1c[nH]c2ccccc12)[C@@H](C)c1ccccc1)[C@@H](C)c1ccccc1)[C@@H](C)c1ccccc1)[C@@H](C)c1ccccc1)[C@@H](C)c1ccccc1 [peptoid 58]	48.7			
C[C@@H](c1ccccc1)N(CC(N)=O)C(=O)CN(CCCCN)C(=O)CN(C(=O)CN(C(=O)CN(CCCCN)C(=O)CN(C(=O)CN(CCCCN)C(=O)CN(CCCCN)C(=O)CN(C(=O)CN(C(=O)CN(CCCCN)C(=O)CNCCc1c[nH]c2ccccc12)[C@@H](C)c1ccccc1)[C@@H](C)c1ccccc1)[C@@H](C)c1ccccc1)[C@@H](C)c1ccccc1)[C@@H](C)c1ccccc1 [peptoid 59]	47.8			
C[C@@H](c1ccccc1)N(CC(N)=O)C(=O)CN(CCCCN)C(=O)CN(C(=O)CN(C(=O)CN(CCCCN)C(=O)CN(C(=O)CN(C(=O)CN(CCCCN)C(=O)CN(C(=O)CN(CCCCN)C(=O)CN(CCCCN)C(=O)CNCCc1c[nH]c2ccccc12)[C@@H](C)c1ccccc1)[C@@H](C)c1ccccc1)[C@@H](C)c1ccccc1)[C@@H](C)c1ccccc1)[C@@H](C)c1ccccc1 [peptoid 60]	48.6			
NC(=O)CN(CCc1c[nH]c2ccccc12)C(=O)CN(CCc1c[nH]c2ccccc12)C(=O)CN(CCCCO)C(=O)CN(CCc1c[nH]c2ccccc12)C(=O)CN(CCc1c[nH]c2ccccc12)C(=O)CN(CCCCO)C(=O)CN(CCc1c[nH]c2ccccc12)C(=O)CN(CCc1c[nH]c2ccccc12)C(=O)CN(CCCCO)C(=O)CN(CCc1c[nH]c2ccccc12)C(=O)CN(CCc1c[nH]c2ccccc12)C(=O)CNCCCCO [peptoid 65] (H-[X1][Gly(N(CH2)2(3-indolyl))][Gly(N(CH2)2(3-indolyl))][X1][Gly(N(CH2)2(3-indolyl))][Gly(N(CH2)2(3-indolyl))][X1][Gly(N(CH2)2(3-indolyl))][Gly(N(CH2)2(3-indolyl))][X1][Gly(N(CH2)2(3-indolyl))][Gly(N(CH2)2(3-indolyl))]-NH2)	66.7			
C[C@@H](c1ccccc1)N(CC(=O)N(CCCCO)CC(=O)N(CCc1c[nH]c2ccccc12)CC(=O)N(CCc1c[nH]c2ccccc12)CC(N)=O)C(=O)CN(CCCCO)C(=O)CN(CCCCO)C(=O)CN(C(=O)CN(C(=O)CN(CCCCO)C(=O)CN(C(=O)CN(C(=O)CNCCCCO)[C@@H](C)c1ccccc1)[C@@H](C)c1ccccc1)[C@@H](C)c1ccccc1)[C@@H](C)c1ccccc1 [peptoid 66]	64.7			

Reference: paper PMC10460844, “Real‐Time Monitoring of Multitarget Antimicrobial Mechanisms of Peptoids Using Label‐Free Imaging with Optical Diffraction Tomography” (Advanced Science, 2023)
